{"source": "patent US20220273802A1", "about": "“METHODS FOR IMPROVED DELIVERY OF AMINOTHIOLS, DIMERS OF AMINOTHIOLS, AND HETERODIMERS COMPOSED OF AMINOTHIOLS” (THE BURLINGTON HC RESEARCH GROUP, INC., priority 2012, published 2022)", "origin": "cited, not measured here", "key": {"mouse L cells": {"system": "mouse L cells", "settings": "for radioprotective effect upon mouse L cells in culture: compound alone, without dephosphorylation"}, "V79 cells": {"system": "V79 cells", "settings": "for activity if present outside of V79 cells: compound present outside of cells"}, "SIV": {"system": "SIV", "settings": "later studies"}, "[1]": {"system": "three species of adenovirus"}}}
{"compound": "NCCCNCCSP(=O)(O)O", "note": "[Amifostine]", "values": [{"measurement": "radioprotective effect upon mouse L cells in culture", "setting": "mouse L cells", "value": "no radioprotective effect"}, {"measurement": "radioprotective activity", "setting": "mouse L cells; incubated with mouse liver homogenate (active alkaline phosphatase)", "value": "radioprotective activity was observed"}, {"measurement": "activity if present outside of V79 cells", "setting": "V79 cells", "value": "did not show evidence of activity"}]}
{"compound": "NCCCNCCSSCC(N)C(=O)O", "note": "(stereo not drawn) [WR-1065-Cys]", "values": [{"measurement": "activity if present outside of V79 cells", "setting": "V79 cells", "value": "did not show evidence of activity"}]}
{"compound": "NCCCNCCS", "note": "[WR-1065]", "values": [{"measurement": "efficacy against SIV", "setting": "SIV", "value": "demonstrated efficacy"}, {"measurement": "radioprotective effect upon mouse L cells in culture", "setting": "mouse L cells", "value": "Activity also was observed"}, {"measurement": "antiviral efficacy against HIV", "setting": "HIV", "value": "exhibits antiviral efficacy"}, {"measurement": "antiviral efficacy against three species of adenovirus", "setting": "[1]", "value": "exhibits antiviral efficacy"}, {"measurement": "antiviral efficacy against influenza virus A and B", "setting": "influenza virus A and B", "value": "exhibits antiviral efficacy"}, {"measurement": "activity if present outside of V79 cells", "setting": "V79 cells", "value": "did not show evidence of activity"}, {"measurement": "protection against gamma-radiation", "setting": "V79 cells; correlated with intracellular levels", "value": "significant protection"}]}
{"compound": "NCCCNCCSSCCNCCCN", "note": "[WR-33278]", "values": [{"measurement": "activity if present outside of V79 cells", "setting": "V79 cells", "value": "did not show evidence of activity"}]}
